From PMC6207684, “Structural reorganization of SHP2 by oncogenic mutations and implications for oncoprotein resistance to allosteric inhibition” (Nature Communications, 2018) come the findings set out here.

Common to all, as to experiment: SHP2 phosphatase activity upon p-IRS-1 peptide stimulation (DiFMUP)
Common to all, as to format: biochemical
Holding throughout (settings): 200 μM DiFMUP, read-out: pIRS-1 AC50

In one assay the target is T1, SHP2^WT (Homo sapiens, UniProt Q06124).
T1 construct: made in house
T1 sequence (Q06124 1-593): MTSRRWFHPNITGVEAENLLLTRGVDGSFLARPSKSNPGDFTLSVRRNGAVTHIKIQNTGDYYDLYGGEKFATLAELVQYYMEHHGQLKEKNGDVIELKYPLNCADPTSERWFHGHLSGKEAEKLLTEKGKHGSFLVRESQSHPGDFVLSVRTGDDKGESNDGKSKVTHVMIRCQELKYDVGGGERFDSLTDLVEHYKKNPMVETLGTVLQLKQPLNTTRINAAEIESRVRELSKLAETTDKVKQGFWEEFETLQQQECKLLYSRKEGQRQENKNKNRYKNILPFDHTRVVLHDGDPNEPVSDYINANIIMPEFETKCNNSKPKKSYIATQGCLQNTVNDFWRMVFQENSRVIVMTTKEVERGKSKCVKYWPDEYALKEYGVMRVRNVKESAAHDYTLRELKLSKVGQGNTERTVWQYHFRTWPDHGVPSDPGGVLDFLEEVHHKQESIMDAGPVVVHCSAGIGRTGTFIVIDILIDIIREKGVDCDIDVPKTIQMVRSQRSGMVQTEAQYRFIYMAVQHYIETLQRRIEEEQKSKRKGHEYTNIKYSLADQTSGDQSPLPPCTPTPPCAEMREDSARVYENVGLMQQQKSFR
The procedure:
(§1) Wild-type and mutant SHP2 proteins were diluted to 0.1 nM and treated with either varying concentrations of diphosphorylated IRS-1 peptide (pY1172-Peg-PY1222, SLNY(p)IDLDLVK-dPEG8-LSTY(p)ASINFQK), or for maximal activation, 10 μM pY1172-Peg-PY1222. Phosphatase activity was measured through the dephosphorylation DiFMUP (200 μM, ex. 385, em. 450 nm) on a Spectramax M5 plate reader and converted to product (DiFMU)/time by preparing a standard curve of DiFMU/DiFMUP. Velocity data were fit to the following three-parameter dose–response curve (Eq. (2)) to extrapolate EC50 values:2 V=Basal+Max-Basal∕1+10^LogEC50-S Where V represents enzyme velocity, Basal is basal response, Max is maximal response, [S] is substrate concentration, and EC50 is the substrate concentration that yields response half way between basal and maximal.

The next assay concerns the target T2, SHP2^D61V (Homo sapiens, UniProt Q06124, D61V).
T2 construct: made in house
T2 sequence (Q06124 1-593 D61V): T1 sequence (Q06124 1-593) with D61V
The method, then: as §1

For the next assay, the target named is T3, SHP2^F285S (Homo sapiens, UniProt Q06124, F285S).
T3 construct: made in house
T3 sequence (Q06124 1-593 F285S): T1 sequence (Q06124 1-593) with F285S
The method, then: as §1

The target of the next assay is T4, SHP2^G60V (Homo sapiens, UniProt Q06124, G60V).
T4 construct: made in house
T4 sequence (Q06124 1-593 G60V): T1 sequence (Q06124 1-593) with G60V
The procedure:
as §1

In a further assay the target is T5, SHP2^S502P (Homo sapiens, UniProt Q06124, S502P).
T5 construct: made in house
T5 sequence (Q06124 1-593 S502P): T1 sequence (Q06124 1-593) with S502P
The procedure:
as §1

Numbering of substitutions follows the chain as printed. Where a SMILES comes first, the peptide text is derived from it. [ ]: non-standard residue; d: D form. pY = N[C@@H](Cc1ccc(OP(=O)(O)O)cc1)C(=O)O; PEG8 = NCCOCCOCCOCCOCCOCCOCCOCCOCCC(=O)O

What is called AC50 is the midpoint of the concentration-response curve, whichever way the signal moves. For `CC[C@H](C)[C@H](NC(=O)[C@H](CO)NC(=O)[C@H](C)NC(=O)[C@H](Cc1ccc(OP(=O)(O)O)cc1)NC(=O)[C@@H](NC(=O)[C@H](CO)NC(=O)[C@H](CC(C)C)NC(=O)CCOCCOCCOCCOCCOCCOCCOCCOCCNC(=O)[C@H](CCCCN)NC(=O)[C@@H](NC(=O)[C@H](CC(C)C)NC(=O)[C@H](CC(=O)O)NC(=O)[C@H](CC(C)C)NC(=O)[C@H](CC(=O)O)NC(=O)[C@@H](NC(=O)[C@H](Cc1ccc(OP(=O)(O)O)cc1)NC(=O)[C@H](CC(N)=O)NC(=O)[C@H](CC(C)C)NC(=O)[C@@H](N)CO)[C@@H](C)CC)C(C)C)[C@@H](C)O)C(=O)N[C@@H](CC(N)=O)C(=O)N[C@@H](Cc1ccccc1)C(=O)N[C@@H](CCC(N)=O)C(=O)N[C@@H](CCCCN)C(=O)O` [pIRS-1, SLNY(p)IDLDLVK-dPEG8-LSTY(p)ASINFQK] (H-SLN[pY]IDLDLVK[PEG8]LST[pY]ASINFQK-OH), the half-maximal activity concentration (AC50) at SHP2^WT came out at 247 ± 18 nM; on SHP2^D61V it was 4 ± 1 nM; at SHP2^F285S, 18 ± 2 nM; at SHP2^G60V, 9 ± 2 nM; on SHP2^S502P it was 5 ± 2 nM.
